Test results from the NIST ThermoML archive (doi:10.1021/acs.jced.7b00008).
Numbers after ± are expanded uncertainties.

Details: Liquid, Ebulliometric method (Recirculating still)

vapor or sublimation pressure (475.01 K) [kPa]	vapor or sublimation pressure (488.81 K) [kPa]	vapor or sublimation pressure (499.14 K) [kPa]	Compound	vapor or sublimation pressure (420.11 K) [kPa]	vapor or sublimation pressure (432.89 K) [kPa]	vapor or sublimation pressure (442.63 K) [kPa]
20 ± 0.6	30 ± 0.6	40 ± 0.6	O=C1CCC(=O)O1 [succinic anhydride]	–	–	–
–	–	–	O=C1CCCO1 [γ-butyrolactone]	20 ± 0.6	30 ± 0.6	40 ± 0.6
